Columns and labels:
[1] = target: T1, Cyclin-G-associated kinase (Homo sapiens) (UniProt O14976); assay: Selectivity interaction (KinomeScan (DiscoverX)) EUB0001049a GAK; conditions: at 1 µM
T1 sequence (whole entry): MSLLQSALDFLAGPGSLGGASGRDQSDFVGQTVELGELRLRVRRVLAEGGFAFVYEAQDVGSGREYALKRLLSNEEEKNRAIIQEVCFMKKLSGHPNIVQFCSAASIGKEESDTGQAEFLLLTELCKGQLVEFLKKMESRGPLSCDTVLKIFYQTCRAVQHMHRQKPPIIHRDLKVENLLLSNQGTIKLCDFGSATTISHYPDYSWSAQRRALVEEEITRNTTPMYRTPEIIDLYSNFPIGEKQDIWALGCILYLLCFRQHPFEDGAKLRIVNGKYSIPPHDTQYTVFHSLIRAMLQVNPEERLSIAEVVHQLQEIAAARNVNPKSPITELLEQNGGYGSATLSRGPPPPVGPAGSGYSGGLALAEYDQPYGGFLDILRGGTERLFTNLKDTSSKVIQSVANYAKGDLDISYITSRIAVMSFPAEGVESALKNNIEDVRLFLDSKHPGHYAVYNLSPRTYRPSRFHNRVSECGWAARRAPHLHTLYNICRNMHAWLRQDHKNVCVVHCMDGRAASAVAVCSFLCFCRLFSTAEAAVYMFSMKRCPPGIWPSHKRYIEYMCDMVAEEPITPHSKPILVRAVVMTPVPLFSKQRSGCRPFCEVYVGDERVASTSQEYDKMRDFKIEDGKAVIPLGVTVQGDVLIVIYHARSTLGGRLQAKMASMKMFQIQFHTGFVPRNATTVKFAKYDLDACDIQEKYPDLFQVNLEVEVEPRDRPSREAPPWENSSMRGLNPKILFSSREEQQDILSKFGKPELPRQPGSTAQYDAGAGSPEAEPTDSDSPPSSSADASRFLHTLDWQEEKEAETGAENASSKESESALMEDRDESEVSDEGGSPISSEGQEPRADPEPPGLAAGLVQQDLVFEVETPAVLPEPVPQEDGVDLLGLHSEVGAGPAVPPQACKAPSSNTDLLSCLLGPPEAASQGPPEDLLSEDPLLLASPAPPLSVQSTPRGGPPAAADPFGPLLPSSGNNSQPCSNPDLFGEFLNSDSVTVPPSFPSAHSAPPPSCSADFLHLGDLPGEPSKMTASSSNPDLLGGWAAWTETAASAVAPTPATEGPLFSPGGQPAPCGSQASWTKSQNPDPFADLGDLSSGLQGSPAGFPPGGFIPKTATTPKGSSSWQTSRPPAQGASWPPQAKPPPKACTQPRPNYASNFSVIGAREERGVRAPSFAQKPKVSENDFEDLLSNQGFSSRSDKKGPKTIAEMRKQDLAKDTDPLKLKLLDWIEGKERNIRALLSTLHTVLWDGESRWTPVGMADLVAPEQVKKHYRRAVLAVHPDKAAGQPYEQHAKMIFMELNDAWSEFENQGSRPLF

[2] = target: Hepatocyte growth factor receptor (Homo sapiens, UniProt P08581); assay: (§1) Selectivity interaction (KinomeScan (DiscoverX)) EUB0000229b MET; conditions: at 10 µM
[3] = tested on: Hepatocyte growth factor receptor (Homo sapiens), P08581 [Y1235D]; assay: as §1; conditions: at 1 µM
[4] = tested on: Hepatocyte growth factor receptor (Homo sapiens), P08581 [M1250T]; assay: as §1; conditions: at 1 µM
[5] = target: Myosin light chain kinase, smooth muscle (Homo sapiens, UniProt Q15746); assay: Selectivity interaction (Ambit KINOMEscan and KiNATiv profiling in Jurkat cells) EUB0000090b MYLK; format: cell-based; conditions: at 1 µM
[6] = target: BMP-2-inducible protein kinase (Homo sapiens) (UniProt Q9NSY1); assay: Selectivity interaction (KinomeScan (DiscoverX)) EUB0000045b BMP2K
[7] = target: STE20/SPS1-related proline-alanine-rich protein kinase (Homo sapiens) (UniProt Q9UEW8); assay: Selectivity interaction (KinomeScan (DiscoverX)) EUB0000607a STK39; conditions: at 10 µM
[8] = target: T2, Serine/threonine-protein kinase haspin (Homo sapiens) (UniProt Q8TF76); assay: Selectivity interaction (Adapta Assay) EUB0001632a GSG2; conditions: at 10 µM
T2 sequence (whole entry): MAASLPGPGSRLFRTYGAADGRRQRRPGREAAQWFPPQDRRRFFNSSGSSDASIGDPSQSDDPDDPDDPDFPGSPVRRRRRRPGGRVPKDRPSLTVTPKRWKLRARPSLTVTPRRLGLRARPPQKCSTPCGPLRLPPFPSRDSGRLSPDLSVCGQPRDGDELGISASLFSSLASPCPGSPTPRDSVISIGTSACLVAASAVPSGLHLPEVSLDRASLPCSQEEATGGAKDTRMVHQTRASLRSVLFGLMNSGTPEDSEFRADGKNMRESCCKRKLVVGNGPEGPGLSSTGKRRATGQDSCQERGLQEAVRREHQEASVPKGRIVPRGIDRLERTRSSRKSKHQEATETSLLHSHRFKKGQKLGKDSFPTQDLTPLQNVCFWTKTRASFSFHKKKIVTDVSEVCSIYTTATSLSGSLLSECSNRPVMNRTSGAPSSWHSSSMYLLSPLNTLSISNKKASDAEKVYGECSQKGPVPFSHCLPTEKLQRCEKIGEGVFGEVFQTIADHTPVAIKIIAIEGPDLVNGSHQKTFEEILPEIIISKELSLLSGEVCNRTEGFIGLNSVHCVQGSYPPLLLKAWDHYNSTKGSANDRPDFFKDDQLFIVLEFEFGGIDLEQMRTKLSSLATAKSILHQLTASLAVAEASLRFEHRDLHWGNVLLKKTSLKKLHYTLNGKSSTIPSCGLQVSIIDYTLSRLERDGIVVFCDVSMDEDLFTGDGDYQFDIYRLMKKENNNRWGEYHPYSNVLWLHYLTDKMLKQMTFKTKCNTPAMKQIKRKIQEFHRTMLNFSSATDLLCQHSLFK

Chain of BMP-2-inducible protein kinase (Homo sapiens) (Q9NSY1 whole entry, looked up): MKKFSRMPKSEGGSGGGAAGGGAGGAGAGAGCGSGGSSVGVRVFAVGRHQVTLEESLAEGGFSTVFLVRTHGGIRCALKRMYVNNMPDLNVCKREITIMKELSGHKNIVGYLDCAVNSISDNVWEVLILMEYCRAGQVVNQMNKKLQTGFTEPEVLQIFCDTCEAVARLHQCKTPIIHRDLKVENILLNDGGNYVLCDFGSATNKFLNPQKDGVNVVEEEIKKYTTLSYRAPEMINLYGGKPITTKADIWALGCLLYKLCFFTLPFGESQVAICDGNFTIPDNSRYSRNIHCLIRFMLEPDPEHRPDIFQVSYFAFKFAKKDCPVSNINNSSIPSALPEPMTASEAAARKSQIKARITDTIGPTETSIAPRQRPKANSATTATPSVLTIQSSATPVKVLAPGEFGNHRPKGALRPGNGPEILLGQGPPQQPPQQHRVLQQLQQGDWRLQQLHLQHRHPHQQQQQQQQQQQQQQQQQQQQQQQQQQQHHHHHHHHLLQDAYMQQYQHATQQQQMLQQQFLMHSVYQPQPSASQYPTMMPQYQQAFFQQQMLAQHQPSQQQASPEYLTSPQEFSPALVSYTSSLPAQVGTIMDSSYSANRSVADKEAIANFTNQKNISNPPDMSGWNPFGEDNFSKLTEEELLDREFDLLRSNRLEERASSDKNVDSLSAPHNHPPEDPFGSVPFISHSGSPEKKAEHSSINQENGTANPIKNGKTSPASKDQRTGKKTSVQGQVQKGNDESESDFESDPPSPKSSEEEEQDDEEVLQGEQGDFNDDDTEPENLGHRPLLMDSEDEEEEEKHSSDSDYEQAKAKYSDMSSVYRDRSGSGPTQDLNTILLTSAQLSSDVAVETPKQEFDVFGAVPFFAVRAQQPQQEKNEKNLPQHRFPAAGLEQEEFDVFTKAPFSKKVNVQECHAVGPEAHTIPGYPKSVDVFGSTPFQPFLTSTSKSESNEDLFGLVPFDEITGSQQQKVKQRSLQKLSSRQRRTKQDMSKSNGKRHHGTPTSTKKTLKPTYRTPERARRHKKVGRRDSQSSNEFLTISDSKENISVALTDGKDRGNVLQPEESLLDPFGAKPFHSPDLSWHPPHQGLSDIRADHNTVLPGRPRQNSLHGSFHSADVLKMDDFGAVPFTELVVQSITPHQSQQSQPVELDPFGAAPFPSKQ
Chain of Hepatocyte growth factor receptor (Homo sapiens), P08581 [M1250T] (P08581 whole entry M1250T): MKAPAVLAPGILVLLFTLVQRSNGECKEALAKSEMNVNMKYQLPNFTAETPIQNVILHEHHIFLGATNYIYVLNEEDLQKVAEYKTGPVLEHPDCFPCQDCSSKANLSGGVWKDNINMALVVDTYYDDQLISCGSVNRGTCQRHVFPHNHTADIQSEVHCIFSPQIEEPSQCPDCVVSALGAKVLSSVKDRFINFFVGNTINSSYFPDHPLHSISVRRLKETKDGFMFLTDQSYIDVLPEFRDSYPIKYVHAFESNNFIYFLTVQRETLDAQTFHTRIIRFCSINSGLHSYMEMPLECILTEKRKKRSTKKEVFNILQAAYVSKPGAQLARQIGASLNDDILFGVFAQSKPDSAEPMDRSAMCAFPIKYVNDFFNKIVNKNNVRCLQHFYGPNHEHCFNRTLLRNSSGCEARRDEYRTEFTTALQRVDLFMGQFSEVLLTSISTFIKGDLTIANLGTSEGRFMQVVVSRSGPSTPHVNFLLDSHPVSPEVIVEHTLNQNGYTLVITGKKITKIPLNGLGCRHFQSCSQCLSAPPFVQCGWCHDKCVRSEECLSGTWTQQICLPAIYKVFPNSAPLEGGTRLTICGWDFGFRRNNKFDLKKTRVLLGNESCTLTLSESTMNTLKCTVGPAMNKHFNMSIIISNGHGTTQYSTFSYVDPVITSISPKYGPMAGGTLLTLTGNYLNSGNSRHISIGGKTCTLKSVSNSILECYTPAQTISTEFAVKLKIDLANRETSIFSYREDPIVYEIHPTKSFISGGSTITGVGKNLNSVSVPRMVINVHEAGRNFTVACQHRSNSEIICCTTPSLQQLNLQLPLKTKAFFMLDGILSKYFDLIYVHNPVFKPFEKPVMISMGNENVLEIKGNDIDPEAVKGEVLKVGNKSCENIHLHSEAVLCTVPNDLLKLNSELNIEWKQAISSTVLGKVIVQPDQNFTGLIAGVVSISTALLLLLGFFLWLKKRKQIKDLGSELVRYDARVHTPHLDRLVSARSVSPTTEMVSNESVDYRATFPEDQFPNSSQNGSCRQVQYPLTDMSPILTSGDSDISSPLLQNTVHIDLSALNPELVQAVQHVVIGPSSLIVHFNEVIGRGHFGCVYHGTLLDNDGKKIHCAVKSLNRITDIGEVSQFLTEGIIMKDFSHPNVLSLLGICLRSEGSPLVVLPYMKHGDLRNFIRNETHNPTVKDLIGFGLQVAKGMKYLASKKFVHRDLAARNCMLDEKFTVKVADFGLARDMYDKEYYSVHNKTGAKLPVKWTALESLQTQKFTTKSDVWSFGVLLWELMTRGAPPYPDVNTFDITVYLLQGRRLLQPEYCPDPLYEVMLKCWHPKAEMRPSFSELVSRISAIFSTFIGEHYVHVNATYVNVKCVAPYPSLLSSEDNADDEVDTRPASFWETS
Chain of Myosin light chain kinase, smooth muscle (Q15746 whole entry): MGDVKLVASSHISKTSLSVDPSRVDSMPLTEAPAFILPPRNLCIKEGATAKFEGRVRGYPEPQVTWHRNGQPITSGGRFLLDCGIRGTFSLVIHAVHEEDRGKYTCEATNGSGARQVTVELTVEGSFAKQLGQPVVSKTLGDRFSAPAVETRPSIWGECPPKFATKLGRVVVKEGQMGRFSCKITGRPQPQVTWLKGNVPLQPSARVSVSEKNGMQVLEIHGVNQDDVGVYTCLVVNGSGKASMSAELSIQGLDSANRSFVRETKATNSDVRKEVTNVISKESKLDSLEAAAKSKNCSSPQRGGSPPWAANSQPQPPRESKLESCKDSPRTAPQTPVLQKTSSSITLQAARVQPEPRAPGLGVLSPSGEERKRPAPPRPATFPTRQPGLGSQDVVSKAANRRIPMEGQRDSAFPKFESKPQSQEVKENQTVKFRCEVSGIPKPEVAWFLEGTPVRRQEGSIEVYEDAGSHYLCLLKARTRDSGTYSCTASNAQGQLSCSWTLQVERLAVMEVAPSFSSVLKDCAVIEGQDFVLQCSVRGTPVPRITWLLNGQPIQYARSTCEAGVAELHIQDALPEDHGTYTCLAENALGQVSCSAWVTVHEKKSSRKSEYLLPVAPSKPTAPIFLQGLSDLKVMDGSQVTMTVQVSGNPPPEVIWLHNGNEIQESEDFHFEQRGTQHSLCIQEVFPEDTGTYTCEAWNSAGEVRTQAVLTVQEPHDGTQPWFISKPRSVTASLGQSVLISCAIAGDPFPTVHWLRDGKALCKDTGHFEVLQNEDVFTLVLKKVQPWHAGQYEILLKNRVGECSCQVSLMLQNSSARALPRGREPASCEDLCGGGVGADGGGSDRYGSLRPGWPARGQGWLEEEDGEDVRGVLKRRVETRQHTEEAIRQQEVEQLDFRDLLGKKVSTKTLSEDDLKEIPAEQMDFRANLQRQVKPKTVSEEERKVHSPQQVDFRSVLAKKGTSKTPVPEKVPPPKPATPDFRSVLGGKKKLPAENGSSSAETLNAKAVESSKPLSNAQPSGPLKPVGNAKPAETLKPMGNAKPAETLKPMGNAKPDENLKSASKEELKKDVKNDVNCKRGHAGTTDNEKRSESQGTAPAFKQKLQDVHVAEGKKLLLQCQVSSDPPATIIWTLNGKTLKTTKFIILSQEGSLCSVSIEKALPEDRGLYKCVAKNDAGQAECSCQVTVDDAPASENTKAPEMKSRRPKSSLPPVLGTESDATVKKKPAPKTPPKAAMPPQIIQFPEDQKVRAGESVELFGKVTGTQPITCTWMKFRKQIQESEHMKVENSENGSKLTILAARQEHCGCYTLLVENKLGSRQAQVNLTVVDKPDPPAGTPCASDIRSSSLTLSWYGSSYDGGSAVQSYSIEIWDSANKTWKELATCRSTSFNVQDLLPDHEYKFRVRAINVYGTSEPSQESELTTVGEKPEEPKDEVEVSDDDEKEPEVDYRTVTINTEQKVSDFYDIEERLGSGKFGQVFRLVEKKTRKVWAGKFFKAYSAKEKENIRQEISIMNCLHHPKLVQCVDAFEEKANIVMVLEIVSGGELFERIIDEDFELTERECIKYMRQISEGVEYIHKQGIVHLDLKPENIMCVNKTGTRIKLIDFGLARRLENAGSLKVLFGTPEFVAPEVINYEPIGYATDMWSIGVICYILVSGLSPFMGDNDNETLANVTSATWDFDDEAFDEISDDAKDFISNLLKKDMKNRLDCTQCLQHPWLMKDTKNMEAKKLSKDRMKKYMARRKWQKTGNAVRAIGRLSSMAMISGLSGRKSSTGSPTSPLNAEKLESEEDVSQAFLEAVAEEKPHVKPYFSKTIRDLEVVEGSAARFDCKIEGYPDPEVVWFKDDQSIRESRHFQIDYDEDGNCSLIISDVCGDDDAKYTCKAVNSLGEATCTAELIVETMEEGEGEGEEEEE

Structure (SMILES): COc1cc(Nc2nc(C)cc(-c3cnn4nc(OC)ccc34)n2)cc(C(F)(F)F)c1
- % of control [1]: 87%

Structure (SMILES): COc1cc(N(C)c2ccnc3ccc(C(F)(F)F)cc23)cc(OC)c1OC
- % binding [2]: 100%
- % binding [3]: 82%
- % binding [4]: 96%

Structure (SMILES): CN(C)C/C=C/C(=O)Nc1ccc(C(=O)N2CCCC(Nc3ncc(Cl)c(-c4c[nH]c5ccccc45)n3)C2)cc1 (centres undefined)
- % of control [5]: 100%

Structure (SMILES): C=CC(=O)Nc1cc(-n2c(=O)ccc3cnc4ccc(-c5ccc(NS(C)(=O)=O)cc5)cc4c32)ccc1C
- % of control ([6]; at 1 µM): 76%
- % of control ([6]; at 10 µM): 39%

Structure (SMILES): CNC(=O)Nc1ccc(-c2nc(N3CC4CCC(C3)O4)c3cnn(C4CCC5(CC4)OCCO5)c3n2)cc1
- % of control [7]: 100%

Structure (SMILES): Cn1cc(-n2cnc3c(NCc4nc5cc(Cl)c(Cl)cc5[nH]4)nc(N4CCOCC4)nc32)cn1
- % of inhibition [8]: 45%
